Laboratory results published in the NIST ThermoML archive (doi:10.1016/j.jct.2010.03.002).
Numbers after ± are expanded uncertainties.

Assays:
[1] = 101 kPa, Liquid; for viscosity: Capillary tube (Ostwald / Ubbelohde) method; for mass density: Vibrating tube method
[2] = xn = mol fraction of the nth substance listed; settings: 101 kPa, Liquid, x1 = 1; for viscosity: Capillary tube (Ostwald / Ubbelohde) method; for mass density: Vibrating tube method

Q: What does the source list for `CCCCCCn1cc[n+](C)c1.[Br-]` [3-hexyl-1-methyl-1H-imidazolium bromide]?
A: viscosity ([1]; 293.15 K): 6936 ± 750 mPa·s; mass density ([1]; 293.15 K): 1227.4 ± 1.7 kg/m3; viscosity ([1]; 303.15 K): 2239 ± 200 mPa·s; mass density ([1]; 303.15 K): 1220.1 ± 1.7 kg/m3; viscosity ([1]; 313.15 K): 851.65 ± 56 mPa·s; mass density ([1]; 313.15 K): 1213.3 ± 1.7 kg/m3; viscosity ([1]; 323.15 K): 512.14 ± 27 mPa·s; mass density ([1]; 323.15 K): 1205.7 ± 1.7 kg/m3; viscosity ([1]; 333.15 K): 350.69 ± 16 mPa·s; mass density ([1]; 333.15 K): 1198.6 ± 1.6 kg/m3

Q: With `O` [water] as the compound, how does the viscosity ([1]; 293.15 K) read?
A: The viscosity was 1.304 ± 0.012 mPa·s.

Q: What about the viscosity ([1]; 303.15 K) of the same compound?
A: The viscosity was 1.002 ± 0.01 mPa·s.

Q: What about the viscosity ([1]; 313.15 K) of the same compound?
A: The viscosity was 0.653 ± 0.007 mPa·s.

Q: What about the viscosity ([1]; 323.15 K) of the same compound?
A: Its viscosity is 0.544 ± 0.005 mPa·s.

Q: What about the mass density ([1]; 323.15 K) of the same compound?
A: Its mass density is 988 ± 0.1 kg/m3.

Q: What about the viscosity ([1]; 333.15 K) of the same compound?
A: Its viscosity is 0.467 ± 0.005 mPa·s.

Q: What about the mass density ([1]; 333.15 K) of the same compound?
A: The mass density was 983.2 ± 0.1 kg/m3.

Q: For `O` [water] + CCCCCCn1cc[n+](C)c1.[Br-], which viscosity ([2]; 293.15 K) is on record?
A: The viscosity was 1.304 ± 0.012 mPa·s.

Q: What about the viscosity ([2]; 303.15 K) of the same compound?
A: Its viscosity is 1.002 ± 0.01 mPa·s.

Q: What about the viscosity ([2]; 313.15 K) of the same compound?
A: The viscosity was 0.653 ± 0.007 mPa·s.

Q: What about the viscosity ([2]; 323.15 K) of the same compound?
A: The viscosity was 0.544 ± 0.005 mPa·s.

Q: And the mass density ([2]; 323.15 K)?
A: The mass density was 988 ± 0.1 kg/m3.

Q: And the viscosity ([2]; 333.15 K)?
A: Its viscosity is 0.467 ± 0.005 mPa·s.

Q: What about the mass density ([2]; 333.15 K) of the same compound?
A: Its mass density is 983.2 ± 0.1 kg/m3.
